For data set [1] the following is noted: in vivo; cited from earlier work.
A further data set has as its system hypertensive patients. Briefly: Clinical response to 8 weeks of drug therapy, patients categorized as responders or non-responders. It is filed as in vivo, human. As to conditions: 8 weeks therapy; for patients who demonstrate a clinical response (responders): BP reduced by 10 mm/Hg systole and/or 6 mm/Hg diastole or more.
Description: • a. Hypertension diagnosed by a Cardiologist. The method used to diagnose hypertension is based on the ICE-9 and ICD-10 classification system, and concurs with the diagnostic hypertension criteria outlined by the American Heart Association and includes the following measures: Blood pressure greater than 140 systolic and 90 diastolic (adult person). For this study, individuals will be recruited primarily with moderate to severe hypertension. • b. Patients with hypertension with a severity level that is judged to be appropriate to treatment with Ramace™ were recruited to participate in the study. Study patients signed a consent and donate a blood sample for the study. • c. Phenotype was confirmed by measurement of blood pressure levels at different time points. • d. Age 12-80 years. • e. Both males and females were recruited. • f. White Caucasian (Icelandic hypertensive patient population). • g. Ramace™ therapy for 8 weeks. Examination by a study cardiologist every 3 weeks who confirmed clinical response to Ramace™ therapy. • h. Response to Ramace™: Patients were categorized as either Ramace™ responders or Ramace™ non-responders. […] The same cardiologists examined all 57 patients before and after Ramace™ trial.
All patients recruited were treated with therapeutic doses of Ramace™ for minimum of 8 weeks and examined by the study cardiologist before and after starting the drug. Blood samples were drawn at a similar time (e.g., around 9 AM) in the morning from all patients. The dose of the ACE inhibitor was recorded for all patients, before and 4 weeks after the patient was started on the study drug. No diet restrictions are implemented.
(§1) • a. Hypertension diagnosed by a Cardiologist. The method used to diagnose hypertension is based on the ICE-9 and ICD-10 classification system, and concurs with the diagnostic hypertension criteria outlined by the American Heart Association and includes the following measures: Blood pressure greater than 140 systolic and 90 diastolic (adult person). For this study, individuals will be recruited primarily with moderate to severe hypertension. • b. Patients with hypertension with a severity level that is judged to be appropriate to treatment with Norvasc™ were recruited to participate in the study. Study patients signed a consent and donate a blood sample for the study. • c. Phenotype was confirmed by measurement of blood pressure levels at different time points. • d. Age 12-80 years. • e. Both males and females were recruited. • f. White Caucasian (Icelandic hypertensive patient population). • g. […] Response to Norvasc™: Patients were categorized as either Norvasc™ responders or Norvasc™ non-responders.
Blood samples were drawn at a similar time (e.g., around 9 AM) in the morning from all patients. The dose was recorded for all patients. No diet restrictions were implemented.
as §1, with “Cozaar™” for “Norvasc™”, “Cozaar™:” for “Norvasc™:”

Another data set deals with T1, AT1 receptor (Homo sapiens, UniProt P30556).
T1 sequence (P30556 1-359): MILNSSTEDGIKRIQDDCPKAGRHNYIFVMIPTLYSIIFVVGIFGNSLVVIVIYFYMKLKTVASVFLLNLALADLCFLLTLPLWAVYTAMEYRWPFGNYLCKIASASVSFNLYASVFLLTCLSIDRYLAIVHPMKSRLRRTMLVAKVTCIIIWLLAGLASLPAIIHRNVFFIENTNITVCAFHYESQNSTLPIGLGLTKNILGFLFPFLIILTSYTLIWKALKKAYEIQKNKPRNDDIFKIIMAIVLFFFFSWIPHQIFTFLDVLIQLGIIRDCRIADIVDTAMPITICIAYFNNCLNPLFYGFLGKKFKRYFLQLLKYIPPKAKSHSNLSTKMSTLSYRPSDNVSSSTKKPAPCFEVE
As to conditions: cited from earlier work.

The next data set has as its target ACE (Homo sapiens, UniProt P12821). As to conditions: cited from earlier work.
In data set [2] the test system is patients with chronic stable angina. As to conditions: placebo 4.4%, P=NS; cited from earlier work.
Data set [3] deals with patients with low renin hypertension. As to conditions: cited from earlier work.

We go through three molecules from patent US20050032096A1, “Methods for predicting drug sensitivity in patients afflicted with hypertension” (deCODE genetics ehf., priority 2003, published 2005).

Chain of ACE (P12821 30-1306, species assumed): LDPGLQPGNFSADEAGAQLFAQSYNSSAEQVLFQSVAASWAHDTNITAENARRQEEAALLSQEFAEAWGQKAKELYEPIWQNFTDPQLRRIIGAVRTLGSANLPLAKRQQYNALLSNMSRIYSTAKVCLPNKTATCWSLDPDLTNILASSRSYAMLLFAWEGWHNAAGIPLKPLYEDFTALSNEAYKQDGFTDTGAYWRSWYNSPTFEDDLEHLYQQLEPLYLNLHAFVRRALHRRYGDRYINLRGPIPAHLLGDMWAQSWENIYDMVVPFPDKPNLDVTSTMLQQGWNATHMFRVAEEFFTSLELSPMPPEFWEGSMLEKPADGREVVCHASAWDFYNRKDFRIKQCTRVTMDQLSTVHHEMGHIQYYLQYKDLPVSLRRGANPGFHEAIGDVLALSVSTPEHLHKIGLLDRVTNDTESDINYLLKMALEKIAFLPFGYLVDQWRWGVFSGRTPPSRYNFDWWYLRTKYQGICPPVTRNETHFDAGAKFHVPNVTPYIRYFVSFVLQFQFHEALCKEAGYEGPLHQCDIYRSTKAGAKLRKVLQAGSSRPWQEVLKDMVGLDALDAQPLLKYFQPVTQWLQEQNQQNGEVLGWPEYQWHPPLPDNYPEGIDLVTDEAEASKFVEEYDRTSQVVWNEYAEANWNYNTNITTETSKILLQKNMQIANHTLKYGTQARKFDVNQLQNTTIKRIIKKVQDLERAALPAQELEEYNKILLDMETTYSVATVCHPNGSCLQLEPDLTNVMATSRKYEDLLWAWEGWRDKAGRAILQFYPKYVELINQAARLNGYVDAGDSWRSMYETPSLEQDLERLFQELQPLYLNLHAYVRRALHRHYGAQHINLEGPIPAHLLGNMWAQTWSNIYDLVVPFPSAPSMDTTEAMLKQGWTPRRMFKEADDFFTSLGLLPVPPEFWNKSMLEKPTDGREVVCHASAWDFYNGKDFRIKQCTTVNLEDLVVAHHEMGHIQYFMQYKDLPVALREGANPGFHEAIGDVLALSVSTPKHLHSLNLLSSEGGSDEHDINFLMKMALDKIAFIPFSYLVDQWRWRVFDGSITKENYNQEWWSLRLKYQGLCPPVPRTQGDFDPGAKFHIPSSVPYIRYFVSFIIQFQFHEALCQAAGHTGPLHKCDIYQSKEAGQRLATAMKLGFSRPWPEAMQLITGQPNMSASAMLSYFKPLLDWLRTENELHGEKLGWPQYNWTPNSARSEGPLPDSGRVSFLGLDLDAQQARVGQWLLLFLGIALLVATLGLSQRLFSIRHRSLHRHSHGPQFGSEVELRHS

For `CCCCc1nc(Cl)c(CO)n1Cc1ccc(-c2ccccc2-c2nn[nH]n2)cc1` [Cozaar, Losartan potassium], the “time to mean peak serum concentration” value in data set [1] is “one”. For the same molecule, in the data set with hypertensive patients (of 65 hypertensive patients), the non-responders was 18 patients and the “patients who demonstrate a clinical response (responders)” value amounted to 47 patients. In addition, the “partial agonist activity at the AT1 receptor” value at AT1 receptor is listed as “do not exhibit any partial agonist activity”. Also, the “inhibition of ACE” value at ACE is reported as “Neither losartan nor its active metabolite inhibits ACE”.

Regarding `CCOC(=O)C1=C(COCCN)NC(C)=C(C(=O)OC)C1c1ccccc1Cl` (centres unmarked) [Norvasc, amlodipine], in the data set on hypertensive patients (of 65 hypertensive patients), the non-responders was determined as 19 patients and the “patients who demonstrate a clinical response (responders)” value is 46 patients. Also, the “patients who discontinued therapy due to adverse events” value in data set [2] is listed as 2%.

For the molecule `CCOC(=O)[C@H](CCc1ccccc1)N[C@@H](C)C(=O)N1[C@H](C(=O)O)C[C@@H]2CCC[C@@H]21` [Ramace, ramipril], in the data set with hypertensive patients (of 57 hypertensive patients), the non-responders came out at 22 patients and the “patients who demonstrate a clinical response (responders)” value is 35 patients. The anti-hypertensive effect result in data set [3] is recorded as “anti-hypertensive”.
